For 2 compounds, Activity results are on record in ChEMBL document CHEMBL2073969, “Increased renal expression of bilirubin glucuronide transporters in a rat model of obstructive jaundice” (Am J Physiol Gastrointest Liver Physiol, 2002).

In this data set the target is ATP-binding cassette sub-family C member 2 (Homo sapiens, UniProt Q92887). Description: TP_TRANSPORTER: RT-PCR in renal proximal tubular epithelial cells. The format is functional, tissue-based, Kidney. Conditions: epithelial cell.
Chain of ATP-binding cassette sub-family C member 2 (Q92887 whole entry): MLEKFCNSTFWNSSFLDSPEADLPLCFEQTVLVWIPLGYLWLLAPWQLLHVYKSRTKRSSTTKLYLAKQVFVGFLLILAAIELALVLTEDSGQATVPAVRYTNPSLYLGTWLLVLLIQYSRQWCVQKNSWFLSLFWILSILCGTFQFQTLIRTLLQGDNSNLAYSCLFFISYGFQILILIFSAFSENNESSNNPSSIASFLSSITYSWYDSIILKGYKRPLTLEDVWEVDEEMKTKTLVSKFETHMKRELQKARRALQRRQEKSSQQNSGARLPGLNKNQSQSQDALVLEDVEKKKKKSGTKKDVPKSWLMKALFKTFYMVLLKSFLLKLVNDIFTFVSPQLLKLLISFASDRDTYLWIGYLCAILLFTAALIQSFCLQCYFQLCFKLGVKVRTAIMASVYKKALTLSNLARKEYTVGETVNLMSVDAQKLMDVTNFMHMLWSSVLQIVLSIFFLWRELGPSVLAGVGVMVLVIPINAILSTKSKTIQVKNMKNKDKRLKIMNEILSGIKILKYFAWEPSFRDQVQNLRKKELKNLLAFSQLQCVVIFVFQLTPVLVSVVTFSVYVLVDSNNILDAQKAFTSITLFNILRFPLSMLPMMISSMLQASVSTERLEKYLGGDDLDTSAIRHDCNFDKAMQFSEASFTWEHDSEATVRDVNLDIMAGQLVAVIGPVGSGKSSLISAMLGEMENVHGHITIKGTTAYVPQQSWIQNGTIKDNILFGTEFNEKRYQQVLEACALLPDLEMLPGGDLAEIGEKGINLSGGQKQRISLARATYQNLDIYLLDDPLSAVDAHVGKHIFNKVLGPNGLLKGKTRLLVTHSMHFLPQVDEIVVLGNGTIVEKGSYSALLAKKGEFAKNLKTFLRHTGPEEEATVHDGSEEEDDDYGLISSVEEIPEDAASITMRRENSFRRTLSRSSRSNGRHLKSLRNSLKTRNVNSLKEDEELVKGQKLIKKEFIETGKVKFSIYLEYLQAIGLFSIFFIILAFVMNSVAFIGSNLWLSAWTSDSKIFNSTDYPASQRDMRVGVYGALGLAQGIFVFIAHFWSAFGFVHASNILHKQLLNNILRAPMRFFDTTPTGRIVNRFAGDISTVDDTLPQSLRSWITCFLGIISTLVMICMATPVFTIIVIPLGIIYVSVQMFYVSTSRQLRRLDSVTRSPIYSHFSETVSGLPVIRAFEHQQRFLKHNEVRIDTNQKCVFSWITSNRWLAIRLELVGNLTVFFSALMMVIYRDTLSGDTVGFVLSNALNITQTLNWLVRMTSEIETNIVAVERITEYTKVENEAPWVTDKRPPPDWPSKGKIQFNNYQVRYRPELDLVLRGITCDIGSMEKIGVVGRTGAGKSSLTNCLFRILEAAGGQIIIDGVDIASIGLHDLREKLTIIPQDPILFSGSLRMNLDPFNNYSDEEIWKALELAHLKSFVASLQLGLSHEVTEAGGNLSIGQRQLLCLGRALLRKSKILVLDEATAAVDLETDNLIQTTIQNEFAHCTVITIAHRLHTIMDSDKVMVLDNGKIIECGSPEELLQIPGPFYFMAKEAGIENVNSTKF

As to `C=CC1=C(C)/C(=C/c2[nH]c(Cc3[nH]c(/C=C4\NC(=O)C(C)=C4C=C)c(C)c3CCC(=O)NCCS(=O)(=O)O)c(CCC(=O)NCCS(=O)(=O)O)c2C)NC1=O` [BILIRUBIN DITAURATE], the Activity entry is “inducer [+]”.

For the compound `C[C@H](CCC(=O)NCCS(=O)(=O)O)[C@H]1CC[C@H]2[C@@H]3CC[C@@H]4C[C@H](O)CC[C@]4(C)[C@H]3CC[C@]12C` [TAUROLITHOCHOLIC ACID], the Activity result was “inducer [+]”.
